Laboratory results published in ChEMBL document CHEMBL4431321, “Profiling of Flavonol Derivatives for the Development of Antitrypanosomatidic Drugs” (J Med Chem, 2016).
The source made the active and inactive calls. No cut-off for these calls is given here.

Columns and labels:
[1] = biological target: Thymidylate synthase (Homo sapiens) (UniProt P04818); test: Inhibition of human thymidylate synthase at 50 uM using folic aid as substrate by spectrophotometric analysis
Cytochrome P450 1A2 = biological target: T1, Cytochrome P450 1A2 (Homo sapiens, UniProt P05177); test: (§1) Inhibition of human microsomal CYP1A2 expressed in baculovirus infected BTI-TN-5B1-4 cells at 10 uM incubated for 30 mins by luciferase assay; assay type: ADME; details: bti-tn-5b1-4, 0.5 h, 10 µM
T1 sequence (P05177 whole entry): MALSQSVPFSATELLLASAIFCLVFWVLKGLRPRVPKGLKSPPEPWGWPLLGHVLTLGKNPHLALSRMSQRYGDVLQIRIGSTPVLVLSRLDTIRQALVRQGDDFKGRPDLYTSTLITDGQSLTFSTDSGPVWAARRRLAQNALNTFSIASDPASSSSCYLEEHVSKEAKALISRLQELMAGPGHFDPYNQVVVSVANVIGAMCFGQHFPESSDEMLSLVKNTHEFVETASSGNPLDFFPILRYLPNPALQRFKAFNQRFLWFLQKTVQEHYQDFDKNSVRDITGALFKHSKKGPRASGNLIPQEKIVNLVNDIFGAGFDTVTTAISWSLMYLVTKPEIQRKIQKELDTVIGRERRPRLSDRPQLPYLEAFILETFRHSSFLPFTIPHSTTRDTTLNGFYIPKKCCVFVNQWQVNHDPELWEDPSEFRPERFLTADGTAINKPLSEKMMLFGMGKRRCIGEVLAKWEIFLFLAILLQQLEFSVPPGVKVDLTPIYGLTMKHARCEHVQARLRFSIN

in vitro = details: human, THP-1 cells
Description: Selectivity index, ratio of CC50 for human THP1 cells to EC50 for Trypanosoma brucei brucei Lister 427 bloodstream forms

[2] = test system: Trypanosoma brucei brucei; test: Antitrypanosomal activity against Trypanosoma brucei brucei Lister 427 bloodstream forms after 72 hrs by resazurin-based assay; assay type: functional, organism-based; details: Lister 427, 72 h
Trypanosoma brucei [3] = test: Inhibition of Trypanosoma brucei DHFR at 50 uM using folic aid as substrate by spectrophotometric analysis
[4] = biological target: T2, Dihydrofolate reductase (Homo sapiens) (UniProt P00374); test: Inhibition of human DHFR at 50 uM using folic aid as substrate by spectrophotometric analysis
T2 sequence (whole entry): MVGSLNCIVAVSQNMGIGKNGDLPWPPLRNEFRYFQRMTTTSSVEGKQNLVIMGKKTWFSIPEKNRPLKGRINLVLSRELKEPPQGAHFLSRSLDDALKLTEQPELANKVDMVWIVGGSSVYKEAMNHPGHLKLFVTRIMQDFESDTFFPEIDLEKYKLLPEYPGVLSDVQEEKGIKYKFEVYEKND

[5] = test system: Trypanosoma brucei brucei; test: Antitrypanosomal activity against Trypanosoma brucei brucei Lister 427 bloodstream forms at 10 uM after 72 hrs by resazurin-based assay; assay type: functional, organism-based
Leishmania mexicana [6] = test: Inhibition of Leishmania mexicana DHFR at 50 uM using folic aid as substrate by spectrophotometric analysis
786-0 = test: Mitochondrial toxicity in human 786-O cells incubated for 6 hrs by mitotracker red staining based-uptake method; assay type: cell-based; details: 786-0, 6 h
WI-38 = test: Cytotoxicity against human WI38 cells at 100 uM after 48 hrs by cell titer glo assay; assay type: cell-based; details: wi-38, 48 h
A549 = test: Cytotoxicity against human A549 cells at 100 uM after 48 hrs by cell titer glo assay; assay type: cell-based; details: a549, 48 h
[7] = Cytotoxicity against human THP1 cells after 72 hrs by MTT assay; assay type: cell-based; details: THP-1 cells; for MNTC at 72 h: read-out: NOAEL
[8] = Inhibition of Trypanosoma brucei PTR1 using H2B as substrate incubated for 10 mins followed by addition of NADPH measured for 10 to 50 mins
Trypanosoma brucei [9] = test: Inhibition of Trypanosoma brucei PTR1 at 50 uM using H2B as substrate incubated for 10 mins followed by addition of NADPH measured for 10 to 50 mins
Leishmania mexicana [10] = test: Inhibition of Leishmania mexicana PTR1 at 50 uM using H2B as substrate incubated for 10 mins followed by addition of NADPH measured for 10 to 50 mins
[11] = test system: Trypanosoma brucei brucei; test: Antitrypanosomal activity against Trypanosoma brucei brucei Lister 427 bloodstream forms assessed as synergy coefficient at 1.25 to 5 uM after 72 hrs in presence of MTX by resazurin-based assay; assay type: functional
CYP1A2 = CYP1A2 (Homo sapiens, UniProt P05177); test: as §1; assay type: ADME
[12] = test system: Trypanosoma brucei brucei; test: Antitrypanosomal activity against Trypanosoma brucei brucei Lister 427 bloodstream forms assessed as synergy coefficient at 2.5 to 5 uM after 72 hrs in presence of MTX by resazurin-based assay; assay type: functional
THP-1 = test: Cytotoxicity against human THP1 cells at 12.5 to 50 uM after in presence of MTX by MTT assay; assay type: cell-based; details: thp-1, 50 µM
[13] = test system: Trypanosoma brucei brucei; test: Antitrypanosomal activity against Trypanosoma brucei brucei Lister 427 bloodstream forms assessed as maximum synergy coefficient at 1.25 after 72 hrs in presence of MTX by resazurin-based assay; assay type: functional
Leishmania infantum = test: Antiparasitic activity against Leishmania infantum MOM/MA67ITMAP263 amastigotes infected in human THP1 cells at 10 uM after 72 hrs by steady-glo luminescence assay; assay type: functional
[14] = biological target: Aurora kinase B (Homo sapiens) (UniProt Q96GD4); test: Inhibition of recombinant full-length human aurora B kinase expressed in baculovirus system using MBP as substrate at 10 uM incubated for 45 mins by ADP-glo kinase assay
Aurora kinase B (Homo sapiens), sequence (Q96GD4 whole entry): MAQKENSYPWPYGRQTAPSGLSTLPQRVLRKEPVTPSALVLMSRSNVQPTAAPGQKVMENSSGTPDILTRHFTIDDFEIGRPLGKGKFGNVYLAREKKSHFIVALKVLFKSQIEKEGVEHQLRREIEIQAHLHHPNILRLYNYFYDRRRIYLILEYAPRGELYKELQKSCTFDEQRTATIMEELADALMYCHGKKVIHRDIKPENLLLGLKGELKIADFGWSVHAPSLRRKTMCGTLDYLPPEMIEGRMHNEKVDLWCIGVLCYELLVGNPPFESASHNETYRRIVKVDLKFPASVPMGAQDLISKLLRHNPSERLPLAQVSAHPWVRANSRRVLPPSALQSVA

Thymidylate synthase (Homo sapiens), sequence (P04818 2-313 limits assumed): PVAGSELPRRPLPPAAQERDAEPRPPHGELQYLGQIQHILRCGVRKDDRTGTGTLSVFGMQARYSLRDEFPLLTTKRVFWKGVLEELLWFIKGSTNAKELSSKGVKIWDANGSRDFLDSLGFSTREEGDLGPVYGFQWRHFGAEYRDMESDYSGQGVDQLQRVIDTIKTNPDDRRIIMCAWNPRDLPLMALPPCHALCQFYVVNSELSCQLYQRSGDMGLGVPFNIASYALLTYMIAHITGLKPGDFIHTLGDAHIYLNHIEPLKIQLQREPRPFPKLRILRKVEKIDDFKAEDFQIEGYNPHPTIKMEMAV

Row | SMILES | inhibition [1] | inhibition (INH) (Cytochrome P450 1A2) | selectivity ratio (in vitro) | EC50 [2] | inhibition (Trypanosoma brucei [3]) | inhibition [4] | Activity [5] | inhibition (Leishmania mexicana [6]) | Activity (786-0) | Activity (WI-38) | Activity (A549) | MNTC at 72 h [7] | inhibition (Trypanosoma brucei [9]) | other results
1 | O=c1c(O)c(-c2ccc(O)c(O)c2)oc2ccc(O)cc12 | inactive | Not Active | 6 | 1.36 µM | < 25% | < 30% | Active | < 25% | Non-Toxic | Non-Toxic | Non-Toxic | 10 µM |  | 
2 | O=c1c(O)c(-c2ccccc2)oc2ccccc12 [FLAVONOL] |  |  |  |  |  |  |  |  |  |  |  |  |  | IC50 [2]: 9.1 µM; IC50 [8]: 12.8 µM
3 | COc1cccc(-c2oc3ccccc3c(=O)c2O)c1 |  | Not Active | 4 |  |  |  | Active |  | Non-Toxic | Non-Toxic | Non-Toxic | 10 µM | inactive | inhibition (Leishmania mexicana [10]): inactive
4 | COc1cc(-c2oc3cc(O)cc(O)c3c(=O)c2O)ccc1O [ISORHAMNETIN] |  |  |  |  |  |  |  |  |  |  |  |  |  | IC50 [2]: 11.2 µM; IC50 [8]: 13.9 µM
5 | O=c1c(O)c(-c2cccc(O)c2)oc2ccccc12 | inactive | Not Active | 4 | 5.18 µM | 42 to 43% | < 30% | Active | 42 to 43% | Non-Toxic | Non-Toxic | Non-Toxic | 20 µM | 35% | inhibition (Leishmania mexicana [10]): 35%
6 | O=c1c(O)c(-c2ccccc2O)oc2cc(O)cc(O)c12 [DATISCETIN] |  |  |  |  |  |  |  |  |  |  |  |  |  | IC50 [2]: 27 µM; IC50 [8]: 76.9 µM
7 | COc1ccc2c(=O)c(O)c(-c3ccc(OC)c(OC)c3)oc2c1 |  | Not Active | 8 |  |  |  | Active |  | Non-Toxic | Non-Toxic | Non-Toxic | 25 µM |  | 
8 | O=c1c(O)c(-c2cccc(O)c2)oc2cc(O)ccc12 | inactive | Not Active | 6 | 12.3 µM | < 25% | < 30% | Active | < 25% | Non-Toxic | Non-Toxic | Non-Toxic |  | 47% | CI [11]: >1; CC50 at 72 h [7]: 80 µM
9 | COc1ccc(-c2oc3ccc(OC)cc3c(=O)c2O)cc1 |  |  | 1 |  |  |  | Active |  | Non-Toxic | Non-Toxic | Non-Toxic | 20 µM |  | inhibition at 0.5 h, 10 µM (CYP1A2): 72%; CI [12]: >1.5; Activity (THP-1): Non-Toxic; CI [13]: 3.1
10 | O=c1c(O)c(-c2ccc(O)cc2)oc2ccc(O)cc12 | inactive | Not Active | 7 | 2.32 µM | < 25% | < 30% | Active | < 25% | Non-Toxic | Non-Toxic | Non-Toxic | 20 µM | 3% | CI [11]: >1.5
11 | O=c1c(O)c(-c2cc(O)c(O)c(O)c2)oc2cc(O)ccc12 [ROBINETIN] | inactive |  | 5 | 18 µM | < 25% | < 30% |  | < 25% | Non-Toxic | Non-Toxic | Non-Toxic | 100 µM | 85% | Activity (Leishmania infantum): 10%; inhibition [14]: Active
